The values below are quoted from earlier work in patent publication US20170027908A1, “Pharmaceutical Composition” (CIPLA Limited, priority 2011, published 2017).

The conditions of data set [1]: in vivo.
Data set [2] deals with airway hyperresponsiveness. The note with it: as compared to fluticasone propionate.

Take `C[C@@H]1C[C@H]2[C@@H]3C[C@H](F)C4=CC(=O)C=C[C@]4(C)[C@@]3(F)[C@@H](O)C[C@]2(C)[C@@]1(OC(=O)c1ccco1)C(=O)SCF` [fluticasone furoate]: in data set [1], the elimination half life is 15.1 h. Also, in data set [2], the “prolonged protection against airway hyperresponsiveness” value is “up to 26 hours”.
